This note sets out measurements from ChEMBL document CHEMBL1201862, “PubChem BioAssay data set” (2004).

Some test systems named below: RXF 393; K562; U-251; HT-29; Malme-3M; KM12; SF-268; OVCAR-4; SF-295; SNB-19; NCI-H522; DU-145; BT-549; 786-0; T47D; OVCAR-3; SF-539; HOP-62; LOX IMVI.
What all share (experiment): NCI tumour cell line growth inhibition, 48 h

Structures are written as SMILES.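 These data come from cells grown in 96-well plates and exposed to compound for 48 hours at five concentrations. The concentration for 50% growth inhibition is given as GI50.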 Active and inactive are the calls of the source. Rule as the data show it: active = GI50 up to about 1.1 µM and inactive = higher. Where a SMILES comes first, the peptide text is derived from it. [ ]: non-standard residue; d: D form. Ac5c = NC1(C(=O)O)CCCC1 A value given as a limit tells only on which side of the number the result lay.

`Nn1c(CCCCCCCCc2nnc(COc3c(O)ccc4ccccc34)n2N)nnc1COc1c(O)ccc2ccccc12`: the GI50 is 84.3 µM (inactive) in the experiment with RXF 393; > 100 µM (inactive) with K562; > 100 µM (inactive) in the experiment on U-251; > 100 µM (inactive) with HT-29; > 100 µM (inactive) in the experiment with Malme-3M; > 100 µM (inactive) in the experiment with KM12. Besides, the GI50 with SF-268 is > 100 µM (inactive); in the experiment with OVCAR-4 it was 59.6 µM (inactive); in the experiment on SF-295, > 100 µM (inactive); in the experiment with SNB-19, > 100 µM (inactive); in the experiment with NCI-H522 it was > 100 µM (inactive); with DU-145, > 100 µM (inactive). In addition, the results for the GI50 in the experiment on BT-549 and in the experiment on 786-0 were > 100 µM (inactive) and 99.3 µM (inactive), respectively.

In the case of `Cc1nnc2sc(-c3ccc(N)cc3)nn12`, the GI50 in the experiment on RXF 393, with K562, in the experiment on T47D, in the experiment with HT-29, with Malme-3M and in the experiment with KM12 was > 100 µM (inactive) each time. Also, the GI50 with SF-268, in the experiment with OVCAR-4, in the experiment with SF-295, with SNB-19, with NCI-H522 and with OVCAR-3 was > 100 µM (inactive) throughout. Further, the GI50 with SF-539, with HOP-62, in the experiment with DU-145 and in the experiment on 786-0 was > 100 µM (inactive) in each case.

Take `COC(CCC[N+](C)(C)C)CC[N+](C)(C)C` (configuration not stated): the GI50 with RXF 393, with K562, in the experiment on U-251, in the experiment on HT-29, in the experiment on Malme-3M and with SF-268 was > 100 µM (inactive) throughout. Moreover, the GI50 in the experiment on OVCAR-4, in the experiment on SF-295, with SNB-19, in the experiment on NCI-H522, in the experiment with OVCAR-3 and in the experiment with SF-539 was > 100 µM (inactive) in each case. Also, the GI50 in the experiment on HOP-62, with DU-145, in the experiment on BT-549 and in the experiment on 786-0 was > 100 µM (inactive) throughout.

For `CN/N=C(\C(=O)Nc1ccc(C(F)(F)F)cc1[N+](=O)[O-])C(c1cnc2ccc([N+](=O)[O-])cc2n1)[N+](=O)[O-]` (configuration not stated), the GI50 in the experiment with RXF 393 was 30.1 µM (inactive); with K562, 8.79 µM (inactive); in the experiment with U-251 it was 78.5 µM (inactive); in the experiment with LOX IMVI, 12.1 µM (inactive); with HT-29, 67.1 µM (inactive); in the experiment with Malme-3M, > 100 µM (inactive). Besides, the GI50 is 48.6 µM (inactive) in the experiment on KM12; 73.3 µM (inactive) in the experiment on SF-268; > 10 µM (inactive) with OVCAR-4; 37.7 µM (inactive) in the experiment with SF-295; 96.6 µM (inactive) in the experiment with SNB-19; 6.84 µM (inactive) in the experiment with NCI-H522. Also, the GI50 in the experiment with OVCAR-3 is 28.6 µM (inactive); with SF-539, 25.6 µM (inactive); in the experiment with HOP-62, 33 µM (inactive); in the experiment on 786-0, 32.4 µM (inactive).

On to `CCCCc1ccc(C#CC#Cc2ccc(CCCC)s2)s1`, for which the GI50 in the experiment with RXF 393, in the experiment with T47D, with U-251, in the experiment with HT-29, with KM12 and in the experiment with SF-268 was > 100 µM (inactive) in each case. Also, the GI50 with OVCAR-4, with SF-295, in the experiment on NCI-H522, in the experiment with OVCAR-3, in the experiment on SF-539 and in the experiment with HOP-62 was > 100 µM (inactive) in each case. The GI50 in the experiment with DU-145 and in the experiment with 786-0 was > 100 µM (inactive) each time.

On to `Nc1nc2c(ncn2Cc2ccccc2CCO)c(=O)[nH]1`, for which the GI50 in the experiment on RXF 393, in the experiment with K562, with U-251, in the experiment on LOX IMVI, in the experiment with HT-29 and in the experiment with Malme-3M was > 100 µM (inactive) in each case. Further, the GI50 in the experiment on KM12, with SF-268, with OVCAR-4, in the experiment with SF-295, in the experiment on SNB-19 and in the experiment with NCI-H522 was > 100 µM (inactive) each time. For the same molecule, the GI50 with OVCAR-3, with HOP-62 and in the experiment on 786-0 was > 100 µM (inactive) each time.

Turning to `Oc1nc2cc(Cl)ccc2nc1/C(=N\Nc1ccccc1)C(O)c1ccc(Cl)c(Cl)c1` (configuration not stated), the GI50 in the experiment with RXF 393, with K562, in the experiment with U-251, in the experiment on LOX IMVI, in the experiment on HT-29 and in the experiment on Malme-3M was > 100 µM (inactive) each time. In addition, the GI50 is > 100 µM (inactive) with KM12; 47.1 µM (inactive) with SF-268; > 100 µM (inactive) in the experiment with OVCAR-4; > 100 µM (inactive) in the experiment with SF-295; > 100 µM (inactive) with SNB-19; > 100 µM (inactive) in the experiment on NCI-H522. The GI50 in the experiment with OVCAR-3, with SF-539, in the experiment on HOP-62 and in the experiment with 786-0 was > 100 µM (inactive) throughout.

For `CC1(C#N)CC(C)(C)C(/C=C2/CC(C)(C)C(/C=C3/OC(=N)CC3(C)C)=N2)=N1` (configuration not stated), the GI50 with RXF 393 is 15.2 µM (inactive); with K562, 22.5 µM (inactive); with T47D, 22.7 µM (inactive); in the experiment on U-251, 38.5 µM (inactive); in the experiment on LOX IMVI, 36.2 µM (inactive); in the experiment on HT-29, 27.2 µM (inactive). Moreover, the GI50 is 0.564 µM (active) in the experiment with Malme-3M; 24.2 µM (inactive) with KM12; 24.3 µM (inactive) in the experiment with SF-268; 20 µM (inactive) in the experiment on OVCAR-4; 23.7 µM (inactive) with SF-295; 32.7 µM (inactive) with SNB-19. Also, the GI50 in the experiment on NCI-H522 was 14.2 µM (inactive); in the experiment on OVCAR-3 it was 20 µM (inactive); with SF-539 it was 62.2 µM (inactive); with HOP-62 it was 23.8 µM (inactive); in the experiment with DU-145, 33.7 µM (inactive); in the experiment with 786-0 it was 24.9 µM (inactive).

As to `O=C1CCCC1C(O)(C(F)(F)F)C(F)(F)F` (configuration not stated), the GI50 in the experiment on RXF 393, with K562, in the experiment on T47D, with U-251, with LOX IMVI and in the experiment on HT-29 was > 100 µM (inactive) in each case. The GI50 in the experiment on Malme-3M, in the experiment on KM12, in the experiment on SF-268, in the experiment with OVCAR-4, with SF-295 and in the experiment on SNB-19 was > 100 µM (inactive) each time. Besides, the GI50 in the experiment on NCI-H522, with OVCAR-3, with SF-539, with HOP-62, with DU-145 and in the experiment on 786-0 was > 100 µM (inactive) in each case.

In the case of `COC(=O)/C(=N/NC(C)(C)C)C(C(=O)C=C(C)C)C(=O)C(=O)Nc1ccc(Cl)cc1C` (configuration not stated), the GI50 with K562, in the experiment with U-251, with HT-29, with Malme-3M, in the experiment with KM12 and in the experiment on SF-268 was > 100 µM (inactive) in each case. Further, the GI50 with OVCAR-4, in the experiment on SF-295, in the experiment on SNB-19, in the experiment with NCI-H522, with OVCAR-3 and in the experiment on SF-539 was > 100 µM (inactive) in each case. For the same molecule, the GI50 in the experiment on HOP-62 and in the experiment with 786-0 was > 100 µM (inactive) each time.

Turning to `C/C(=C\COP(=O)(O)OP(=O)(O)O)CC/C=C(\C)CNc1ccc([N+](=O)[O-])cc1`, the GI50 with RXF 393, in the experiment on K562, in the experiment on T47D, with U-251, in the experiment on LOX IMVI and in the experiment with HT-29 was > 100 µM (inactive) in each case. Besides, the GI50 with Malme-3M, with KM12, in the experiment on SF-268, with OVCAR-4, with SF-295 and in the experiment on SNB-19 was > 100 µM (inactive) throughout. The GI50 in the experiment with NCI-H522, in the experiment on OVCAR-3, in the experiment on SF-539, in the experiment on HOP-62, in the experiment with DU-145 and in the experiment with 786-0 was > 100 µM (inactive) each time.

For the molecule `COC(=O)C1(NC(=O)C(C)NC(=O)C(CCCCN)NC(=O)C(CC(C)C)NC(C)=O)CCCC1` (configuration not stated) (Ac-LKA[Ac5c]-OMe; configuration not given here), the GI50 with K562 is > 100 µM (inactive); with T47D it was > 100 µM (inactive); with HT-29, > 100 µM (inactive); in the experiment on KM12 it was > 100 µM (inactive); in the experiment on SF-268, > 100 µM (inactive); in the experiment on OVCAR-4, > 10 µM (inactive). Also, the GI50 with SF-295, in the experiment with SNB-19, in the experiment with NCI-H522, with SF-539, with HOP-62 and in the experiment on 786-0 was > 100 µM (inactive) in each case.
